According to patent US11008295B2, “Compounds having antiinfective, antitumoral and antifungal activity” (priority 2017, dated 2021):

Legend:
Assay in all cases: Kirby-Bauer disk diffusion susceptibility test
B. cereus = type: cell-based, Bacillus cereus
Procedure: (§1) Bacterial strains, from clinical origin, were supplied by the National Center for Microbiology, Institute of Health Carlos III (Majadahonda, Madrid). They are detailed in Table I.
(§2) Bacterial cells suspension in sterile saline was prepared from a culture of 24-72 h, depending on bacterial species, in Mueller-Hinton Agar with 5% sheep blood. Each suspension was adjusted to a fixed size inoculum of 1-5×10^8 CFU/ml with a spectrophotometer (Ferraro, M J National Committee for Clinical Laboratory Standards. 2000).
(§3) Kirby-Bauer disk diffusion susceptibility test protocol was utilized to determine the sensitivity or resistance of pathogenic bacteria against the compounds and others antibiotics. The absence of growth around the disks is an indirect measure of the ability of this compound to inhibit an organism (Kirby, W. et al., Antibiotics Annu. 1956-1957:892). After 18 to 72 hours of incubation at […], with or without CO2, under aerobic or anaerobic conditions, depending on the bacterial species, halo of growth inhibition were obtained and evaluated.
(§4) Interpretation of susceptibility and resistance was based on the presence or absence of a zone of inhibition surrounding the disk. Kirby-Bauer disk diffusion susceptibility test is a common method which uses antibiotic-impregnated wafers to test whether bacteria are affected by antibiotics. The size of the zone of inhibition depends on how effective the antibiotic is at stopping the growth of the bacterium. A stronger antibiotic will create a larger zone, because a lower concentration of the antibiotic is enough to stop growth.

S. aureus = type: cell-based
Procedure: as §1, §2, §3, §4

S. epidermidis = type: cell-based
Procedure: as §1, §2, §3, §4

A. baumannii = type: cell-based
Procedure: as §1, §2, §3, §4

P. aeruginosa = type: cell-based; details: P. aeruginosa strain 96, isolation year 2014
Procedure: as §1, §2, §3, §4

E. faecium = type: cell-based
Procedure: as §1, §2, §3, §4

E. faecalis = type: cell-based
Procedure: as §1, §2, §3, §4

N. carnea = type: cell-based, Nocardia carnea
Procedure: as §1, §2, §3, §4

N. cyriacigeorgica = type: cell-based
Procedure: as §1, §2, §3, §4

E. coli = type: cell-based
Procedure: as §1, §2, §3, §4

T. pulmonis = type: cell-based, Tsukamurella pulmonis
Procedure: as §1, §2, §3, §4

M. chelonae = type: cell-based; details: M. chelonae strain 870, isolation year 2011
Procedure: as §1, §2, §3, §4

M. fortuitum = type: cell-based; details: M. fortuitum strain 1080, isolation year 2011
Procedure: as §1, §2, §3, §4

M. abscessus = type: cell-based, Mycobacterium abscessus; details: M. abscessus strain 690, isolation year 2012
Procedure: as §1, §2, §3, §4

[1] = B. cereus strain 25, isolation year 2014
[2] = B. cereus strain 182, isolation year 2013
[3] = S. aureus strain 282, isolation year 2005
[4] = S. aureus strain 890, isolation year 2010
[5] = S. epidermidis strain 188, isolation year 2009
[6] = S. epidermidis strain 982, isolation year 2006
[7] = E. faecium strain 26, isolation year 2012
[8] = E. faecium strain 209, isolation year 2015
[9] = E. faecalis strain 52, isolation year 2006
[10] = E. faecalis strain 1052, isolation year 2008
[11] = N. carnea strain 40, isolation year 2011
[12] = N. carnea strain 769, isolation year 2009
[13] = N cyriacigeorgica strain 199, isolation year 2005
[14] = N. cyriacigeorgica strain 30, isolation year 2005
[15] = E. coli strain 29, isolation year 2012
[16] = E. coli strain 305, isolation year 2008
[17] = T. pulmonis strain 40, isolation year 2015
[18] = T. pulmonis strain 1991, isolation year 2009
Also: key: I = intermediate activity; S = susceptibility; R = Resistance.

Molecule: CO[C@H]1/C=C/O[C@@]2(C)Oc3c(C)c(O)c4c(O)c(c(/C=N/N5CCN(C)CC5)c(O)c4c3C2=O)NC(=O)/C(C)=C\C=C\[C@H](C)[C@H](O)[C@@H](C)[C@@H](O)[C@@H](C)[C@H](OC(C)=O)[C@@H]1C [RIF, Rifampicin]
- Sensitivity or resistance of the strain to the antibiotic (B. cereus; [1]): S
- Sensitivity or resistance of the strain to the antibiotic (B. cereus; [2]): S

Molecule: CN(C)[C@@H]1C(O)=C(C(N)=O)C(=O)[C@@]2(O)C(O)=C3C(=O)c4c(O)cccc4[C@@](C)(O)[C@H]3C[C@@H]12 [TET, Tetracycline]
- Sensitivity or resistance of the strain to the antibiotic (S. aureus; [3]): S
- Sensitivity or resistance of the strain to the antibiotic (S. aureus; [4]): R
- Sensitivity or resistance of the strain to the antibiotic (S. epidermidis; [5]): S
- Sensitivity or resistance of the strain to the antibiotic (S. epidermidis; [6]): S
- Sensitivity or resistance of the strain to the antibiotic (B. cereus; [1]): R
- Sensitivity or resistance of the strain to the antibiotic (B. cereus; [2]): S

Molecule: NC[C@H]1O[C@H](O[C@H]2[C@H](O)[C@@H](O[C@H]3O[C@H](CO)[C@@H](O)[C@H](N)[C@H]3O)[C@H](N)C[C@@H]2N)[C@H](N)C[C@@H]1O [TOB, Tobramycin]
- Sensitivity or resistance of the strain to the antibiotic (A. baumannii; A. baumannii strain 300, isolation year 2001): S
- Sensitivity or resistance of the strain to the antibiotic (A. baumannii; A. baumannii strain 1301, isolation year 2009): S
- Sensitivity or resistance of the strain to the antibiotic (P. aeruginosa): S

Molecule: CN[C@H](CC(C)C)C(=O)N[C@H]1C(=O)N[C@@H](CC(N)=O)C(=O)N[C@H]2C(=O)N[C@H]3C(=O)N[C@H](C(=O)N[C@H](C(=O)O)c4cc(O)cc(O)c4-c4cc3ccc4O)[C@H](O)c3ccc(c(Cl)c3)Oc3cc2cc(c3O[C@@H]2O[C@H](CO)[C@@H](O)[C@H](O)[C@H]2O[C@H]2C[C@](C)(N)[C@H](O)[C@H](C)O2)Oc2ccc(cc2Cl)[C@H]1O [VAN, Vancomycin]
- Sensitivity or resistance of the strain to the antibiotic (S. aureus; [3]): S
- Sensitivity or resistance of the strain to the antibiotic (S. aureus; [4]): S
- Sensitivity or resistance of the strain to the antibiotic (E. faecium; [7]): I
- Sensitivity or resistance of the strain to the antibiotic (E. faecium; [8]): S
- Sensitivity or resistance of the strain to the antibiotic (S. epidermidis; [5]): S
- Sensitivity or resistance of the strain to the antibiotic (S. epidermidis; [6]): S
- Sensitivity or resistance of the strain to the antibiotic (E. faecalis; [9]): S
- Sensitivity or resistance of the strain to the antibiotic (E. faecalis; [10]): S
- Sensitivity or resistance of the strain to the antibiotic (B. cereus; [1]): S
- Sensitivity or resistance of the strain to the antibiotic (B. cereus; [2]): S

Molecule: Amoxicillin/Clavulanate [A/C]
- Sensitivity or resistance of the strain to the antibiotic (N. carnea; [11]): S
- Sensitivity or resistance of the strain to the antibiotic (N. carnea; [12]): S
- Sensitivity or resistance of the strain to the antibiotic (N. cyriacigeorgica; [13]): R
- Sensitivity or resistance of the strain to the antibiotic (N. cyriacigeorgica; [14]): R
- Sensitivity or resistance of the strain to the antibiotic (E. coli; [15]): S
- Sensitivity or resistance of the strain to the antibiotic (E. coli; [16]): R
- Sensitivity or resistance of the strain to the antibiotic (T. pulmonis; [17]): R
- Sensitivity or resistance of the strain to the antibiotic (T. pulmonis; [18]): S

Molecule: Cotrimoxazole [SxT]
- Sensitivity or resistance of the strain to the antibiotic (N. carnea; [11]): R
- Sensitivity or resistance of the strain to the antibiotic (N. carnea; [12]): R
- Sensitivity or resistance of the strain to the antibiotic (N. cyriacigeorgica; [13]): S
- Sensitivity or resistance of the strain to the antibiotic (N. cyriacigeorgica; [14]): S
- Sensitivity or resistance of the strain to the antibiotic (M. chelonae): R
- Sensitivity or resistance of the strain to the antibiotic (M. fortuitum): S
- Sensitivity or resistance of the strain to the antibiotic (M. abscessus): S
- Sensitivity or resistance of the strain to the antibiotic (T. pulmonis; [17]): R
- Sensitivity or resistance of the strain to the antibiotic (T. pulmonis; [18]): S

Molecule: Gentamicin
- Sensitivity or resistance of the strain to the antibiotic (S. aureus; [3]): R
- Sensitivity or resistance of the strain to the antibiotic (S. aureus; [4]): R
- Sensitivity or resistance of the strain to the antibiotic (E. faecium; [7]): S
- Sensitivity or resistance of the strain to the antibiotic (E. faecium; [8]): S
- Sensitivity or resistance of the strain to the antibiotic (S. epidermidis; [5]): S
- Sensitivity or resistance of the strain to the antibiotic (S. epidermidis; [6]): R
- Sensitivity or resistance of the strain to the antibiotic (E. faecalis; [9]): S
- Sensitivity or resistance of the strain to the antibiotic (E. faecalis; [10]): S
- Sensitivity or resistance of the strain to the antibiotic (E. coli; [15]): S
- Sensitivity or resistance of the strain to the antibiotic (E. coli; [16]): S
